This assay addresses T1, AORX514 (AOR-His) (Thermoanaerobacter pseudethanolicus, UniProt B0K8P3).
T1 construct: gene Teth39_0850; full length, C-terminal 6xHis (plasmid pJM009), made in Thermoanaerobacter kivui MB014; W-containing, FeS cluster
Description: acetaldehyde-dependent viologen reduction at […] nm; substrate inhibition kinetics. Format: biochemical. Particulars: benzyl viologen as electron acceptor, routine assay 50 mM TRIS pH 7.5, 65 °C, anoxic.

The values that follow come from PMC10816221, “A Versatile Aldehyde: Ferredoxin Oxidoreductase from the Organic Acid Reducing Thermoanaerobacter sp. Strain X514” (International Journal of Molecular Sciences, 2024).

T1 sequence (B0K8P3 1-599): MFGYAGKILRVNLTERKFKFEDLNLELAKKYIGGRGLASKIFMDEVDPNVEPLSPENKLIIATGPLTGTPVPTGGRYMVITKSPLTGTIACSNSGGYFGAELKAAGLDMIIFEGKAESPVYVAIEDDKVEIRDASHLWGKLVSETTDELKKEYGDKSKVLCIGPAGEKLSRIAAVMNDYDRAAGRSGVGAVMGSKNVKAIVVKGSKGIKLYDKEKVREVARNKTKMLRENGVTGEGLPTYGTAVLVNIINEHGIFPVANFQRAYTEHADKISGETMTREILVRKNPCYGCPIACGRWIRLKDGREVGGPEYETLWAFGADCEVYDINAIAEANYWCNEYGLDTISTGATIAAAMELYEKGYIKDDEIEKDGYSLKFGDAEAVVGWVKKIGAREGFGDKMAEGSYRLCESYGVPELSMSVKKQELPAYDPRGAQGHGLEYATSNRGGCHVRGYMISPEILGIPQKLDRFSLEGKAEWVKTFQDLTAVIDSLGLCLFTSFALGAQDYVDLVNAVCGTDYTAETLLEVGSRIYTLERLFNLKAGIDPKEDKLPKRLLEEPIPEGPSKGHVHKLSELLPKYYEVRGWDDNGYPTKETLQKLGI

The molecule `CC=O` [Acetaldehyde] showed a ki of 8.7 ± 1.3 mM.
